# Calls of active or inactive are those of the source. The calls are words filed in the database; no cut-off is given here.
# Tests used:
# Salmon testes DNA = assay: Binding affinity to salmon sperm DNA assessed as DNA intercalation at 20 uM incubated for 20 mins by acridine orange orange dye based fluorescence polarization assay; format: nucleic-acid assay; details: Salmonidae
# [1] = Antiproliferative activity against human DND41 cells assessed as reduction in cell viability incubated for 72 hrs by IncuCyte live-cell imaging assay; format: functional, cell-based; details: DND41, 72 h
# NCI-H460 = assay: Antiproliferative activity against human NCI-H460 cells assessed as reduction in cell viability incubated for 72 hrs by IncuCyte live-cell imaging assay; format: functional, cell-based; details: NCI-H460, 72 h
# HEp-2 [2] = assay: Induction of DNA damage in human Hep2 cells assessed as increase in gamma-H2AX positive cells after 24 hrs by DAPI staining based immunofluorescence analysis; format: functional, cell-based
# PBMC = assay: Induction of apoptosis in human PBMC assessed as caspase 3/7 activation at 0.0064 to 100 uM incubated for 72 hrs and measured at 3 hrs interval by IncuCyte Caspase 3/7 Green reagent based assay; format: cell-based
# HEp-2 [3] = assay: Induction of DNA damage in human Hep2 cells assessed as gamma-H2AX positive cells at 1 uM after 24 hrs by DAPI staining based immunofluorescence analysis relative to control; format: functional
# HL-60 = assay: Antiproliferative activity against human HL60 cells assessed as reduction in cell viability incubated for 72 hrs by IncuCyte live-cell imaging assay; format: functional, cell-based; details: HL-60, 72 h
# Z-138 = assay: Antiproliferative activity against human Z138 cells assessed as reduction in cell viability incubated for 72 hrs by IncuCyte live-cell imaging assay; format: functional, cell-based; details: Z-138, 72 h
# CAPAN-1 [4] = assay: Antiproliferative activity against human Capan1 cells assessed as reduction in cell viability incubated for 72 hrs by IncuCyte live-cell imaging assay; format: functional, cell-based; details: CAPAN-1, 72 h
# LN-229 = assay: Antiproliferative activity against human LN229 cells assessed as reduction in cell viability incubated for 72 hrs by IncuCyte live-cell imaging assay; format: functional, cell-based; details: LN-229, 72 h
# Tubulin (Homo sapiens) = Tubulin (Homo sapiens) (UniProt P68371+Q9H4B7+P0DPH7+P68366+Q13509+Q71U36+P04350+Q3ZCM7+P07437+P68363+Q9BQE3+Q6PEY2+Q13885+Q9BVA1+Q9BUF5); assay: Inhibition of tubulin polymerization in human Hep2 cells at 100 uM after 3 hrs by DAPI-staining based fluorescence microscopic assay; format: cell-based; details: HEp-2
# HCT-116 = assay: Antiproliferative activity against human HCT116 cells assessed as reduction in cell viability incubated for 72 hrs by IncuCyte live-cell imaging assay; format: functional, cell-based; details: HCT-116, 72 h
# K562 = assay: Antiproliferative activity against human K562 cells assessed as reduction in cell viability incubated for 72 hrs by IncuCyte live-cell imaging assay; format: functional, cell-based; details: K562, 72 h
# HEp-2 [5] = assay: Induction of DNA damage in human Hep2 cells assessed as gamma-H2AX positive cells at 10 uM after 24 hrs by DAPI staining based immunofluorescence analysis relative to control; format: functional
# HEp-2 [6] = assay: Induction of DNA damage in human Hep2 cells assessed as gamma-H2AX positive cells at 100 uM after 24 hrs by DAPI staining based immunofluorescence analysis (reference value: 0.51%); format: functional
# CAPAN-1 [7] = assay: Induction of apoptosis in human Capan1 cells assessed as increase in apoptotic cells incubated for 72 hrs and measured at 3 hrs interval by IncuCyte Caspase 3/7 Green reagent based assay; format: functional, cell-based
Compound,Activity (Salmon testes DNA),IC50 [1],IC50 (NCI-H460),Activity (HEp-2 [2]),Activity (PBMC),Activity (HEp-2 [3]),IC50 (HL-60),IC50 (Z-138),IC50 (CAPAN-1 [4]),IC50 (LN-229),inhibition (Tubulin (Homo sapiens)),IC50 (HCT-116),IC50 (K562),Activity (HEp-2 [5]),Activity (HEp-2 [6]),Activity (CAPAN-1 [7])
Nc1ncnn2c([C@@H]3O[C@H](CO)[C@@H](O)[C@H]3O)cc(/C=C/c3ccccc3)c12,Active,1.7 µM,3.7 µM,Dose-dependent effect,Non-Toxic,0.05%,2 µM,1.3 µM,2.6 µM,3.9 µM,Active,4.8 µM,3.1 µM,0%,0.22%,
COc1ccc(-c2cc([C@@H]3O[C@H](CO)[C@@H](O)[C@H]3O)n3ncnc(N)c23)cc1,,41.7 µM,69.3 µM,,,,> 100 µM,62.6 µM,43.9 µM,40.3 µM,,47.1 µM,76.4 µM,,,
Nc1ncnn2c([C@@H]3O[C@H](CO)[C@@H](O)[C@H]3O)cc(-c3ccsc3)c12,,85.4 µM,35.6 µM,,,,37.3 µM,43.5 µM,56.2 µM,57.7 µM,,45.2 µM,66.4 µM,,,
COc1cc([C@@H]2c3cc4c(cc3[C@@H](O[C@@H]3O[C@@H]5CO[C@@H](C)O[C@H]5[C@H](O)[C@H]3O)[C@H]3COC(=O)[C@H]23)OCO4)cc(OC)c1O [ETOPOSIDE],,,,,,1.66%,,,,,,,,89.89%,89.31%,
Nc1ncnn2c([C@@H]3O[C@H](CO)[C@@H](O)[C@H]3O)cc(C#Cc3cccs3)c12,,33.4 µM,26.6 µM,,,,> 100 µM,50.1 µM,32 µM,> 100 µM,,65.5 µM,> 100 µM,,,
Nc1ncnn2c([C@@H]3O[C@H](CO)[C@@H](O)[C@H]3O)cc(C#Cc3ccccc3)c12,,62.6 µM,38.5 µM,,,,> 100 µM,41.4 µM,37.7 µM,88 µM,,46.9 µM,> 100 µM,,,
Nc1ncnn2c([C@@H]3O[C@H](CO)[C@@H](O)[C@H]3O)cc(-c3ccc(Cl)cc3)c12,,35.1 µM,45.9 µM,,,,37.9 µM,40.2 µM,56.7 µM,32.6 µM,,59.3 µM,47.8 µM,,,
Nc1ncnn2c([C@@H]3O[C@H](CO)[C@@H](O)[C@H]3O)cc(C#Cc3ccc(F)cc3)c12,,> 100 µM,79.4 µM,,,,> 100 µM,89 µM,55.4 µM,> 100 µM,,> 100 µM,> 100 µM,,,
Nc1ncnn2c([C@@H]3O[C@H](CO)[C@@H](O)[C@H]3O)cc(-c3ccc(F)cc3F)c12,,68.2 µM,93.3 µM,,,,99.3 µM,59.1 µM,50.9 µM,43.5 µM,,59.5 µM,69.7 µM,,,
CCCCC#Cc1cc([C@@H]2O[C@H](CO)[C@@H](O)[C@H]2O)n2ncnc(N)c12,Active,0.4 µM,1.7 µM,Dose-dependent effect,Non-Toxic,0.31%,0.4 µM,0.2 µM,1 µM,1 µM,Active,2.9 µM,2.4 µM,0.35%,1.57%,Active
Nc1ncnn2c([C@@H]3O[C@H](CO)[C@@H](O)[C@H]3O)cc(-c3ccccc3Cl)c12,,78.5 µM,> 100 µM,,,,> 100 µM,76.1 µM,54.9 µM,> 100 µM,,> 100 µM,> 100 µM,,,
Nc1ncnn2c([C@@H]3O[C@H](CO)[C@@H](O)[C@H]3O)cc(-c3ccccc3F)c12,,> 100 µM,> 100 µM,,,,> 100 µM,95.3 µM,> 100 µM,> 100 µM,,> 100 µM,> 100 µM,,,
Cc1ccccc1-c1cc([C@@H]2O[C@H](CO)[C@@H](O)[C@H]2O)n2ncnc(N)c12,,94.1 µM,> 100 µM,,,,48.4 µM,66 µM,97.5 µM,> 100 µM,,> 100 µM,> 100 µM,,,
CC(=O)O[C@@]12CO[C@@H]1C[C@H](O)[C@@]1(C)C(=O)[C@H](O)C3=C(C)[C@@H](OC(=O)[C@H](O)[C@@H](NC(=O)OC(C)(C)C)c4ccccc4)C[C@@](O)([C@@H](OC(=O)c4ccccc4)[C@H]21)C3(C)C [DOCETAXEL ANHYDROUS],,0.005 µM,0.004 µM,,,,0.05 µM,0.004 µM,0.025 µM,0.002 µM,,0.007 µM,0.009 µM,,,
Nc1ncnn2c([C@@H]3O[C@H](CO)[C@@H](O)[C@H]3O)cc(-c3ccccc3)c12,,> 100 µM,> 100 µM,,,,> 100 µM,> 100 µM,65.2 µM,75.1 µM,,82.6 µM,> 100 µM,,,
Nc1ncnn2c([C@@H]3O[C@H](CO)[C@@H](O)[C@H]3O)cc(-c3ccc(F)cc3)c12,,39.3 µM,55.5 µM,,,,68.3 µM,> 100 µM,65.6 µM,65.6 µM,,42.5 µM,> 100 µM,,,
CN[C@@H]1C[C@H]2O[C@@](C)([C@@H]1OC)n1c3ccccc3c3c4c(c5c6ccccc6n2c5c31)C(=O)NC4 [STAUROSPORINE],,,0.06 µM,,,,0.04 µM,,,,,0.04 µM,0.04 µM,,,
Nc1ncnn2c([C@@H]3O[C@H](CO)[C@@H](O)[C@H]3O)cc(-c3ccoc3)c12,Active,0.1 µM,1.5 µM,Dose-dependent effect,Non-Toxic,0.13%,0.5 µM,0.3 µM,0.9 µM,1 µM,Active,1.4 µM,2.1 µM,1.54%,3.74%,Active
